Test results: ChEMBL document CHEMBL1151200, “Comparison of fascaplysin and related alkaloids: a study of structures, cytotoxicities, and sources” (J Nat Prod, 2004)

Columns and labels:
A549 = experiment: Antitumor activity against human A549/ATCC cells; assay type: functional, cell-based
EKVX = experiment: Antitumor activity against human EKVX cells; assay type: functional, cell-based
HOP-62 = experiment: Antitumor activity against human HOP62 cells; assay type: functional, cell-based
HOP-92 = experiment: Antitumor activity against human HOP92 cells; assay type: functional, cell-based
NCI-H226 = experiment: Antitumor activity against human NCI-H226 cells; assay type: functional, cell-based
NCI-H23 = experiment: Antitumor activity against human NCI-H23 cells; assay type: functional, cell-based
NCI-H322M = experiment: Antitumor activity against human NCI-H322M cells; assay type: functional, cell-based
NCI-H460 = experiment: Antitumor activity against human NCI-H460 cells; assay type: functional, cell-based
NCI-H522 = experiment: Antitumor activity against human NCI-H522 cells; assay type: functional, cell-based
COLO 205 = experiment: Antitumor activity against human COLO205 cells; assay type: functional, cell-based
HCC 2998 = experiment: Antitumor activity against human HCC2998 cells; assay type: functional, cell-based
HCT-116 = experiment: Antitumor activity against human HCT116 cells; assay type: functional, cell-based
HCT-15 = experiment: Antitumor activity against human HCT15 cells; assay type: functional, cell-based
HT-29 = experiment: Antitumor activity against human HT-29 cells; assay type: functional, cell-based
KM12 = experiment: Antitumor activity against human KM12 cells; assay type: functional, cell-based
SW-620 = experiment: Antitumor activity against human SW620 cells; assay type: functional, cell-based
SF-268 = experiment: Antitumor activity against human SF268 cells; assay type: functional, cell-based
SF-295 = experiment: Antitumor activity against human SF295 cells; assay type: functional, cell-based
SF-539 = experiment: Antitumor activity against human SF539 cells; assay type: functional, cell-based
SNB-19 = experiment: Antitumor activity against human SNB19 cells; assay type: functional, cell-based
SNB-75 = experiment: Antitumor activity against human SNB75 cells; assay type: functional, cell-based
U-251 = experiment: Antitumor activity against human U251 cells; assay type: functional, cell-based
LOX IMVI = experiment: Antitumor activity against human LOXIMVI cells; assay type: functional, cell-based
Malme-3M = experiment: Antitumor activity against human MALME-3M cells; assay type: functional, cell-based
M14 = experiment: Antitumor activity against human M14 cells; assay type: functional, cell-based
SK-MEL-28 = experiment: Antitumor activity against human SK-MEL-28 cells; assay type: functional, cell-based
SK-MEL-5 = experiment: Antitumor activity against human SK-MEL-5 cells; assay type: functional, cell-based
UACC-257 = experiment: Antitumor activity against human UACC257 cells; assay type: functional, cell-based
UACC-62 = experiment: Antitumor activity against human UACC62 cells; assay type: functional, cell-based
IGROV-1 = experiment: Antitumor activity against human IGROV1 cells; assay type: functional, cell-based
OVCAR-3 = experiment: Antitumor activity against human OVCAR-3 cells; assay type: functional, cell-based
OVCAR-4 = experiment: Antitumor activity against human OVCAR4 cells; assay type: functional, cell-based
OVCAR-5 = experiment: Antitumor activity against human OVCAR5 cells; assay type: functional, cell-based
OVCAR-8 = experiment: Antitumor activity against human OVCAR8 cells; assay type: functional, cell-based
SK-OV-3 = experiment: Antitumor activity against human SKOV3 cells; assay type: functional, cell-based
[1] = Antitumor activity against human 786-O cells; assay type: functional, cell-based; settings: 786-0
ACHN = experiment: Antitumor activity against human ACHN cells; assay type: functional, cell-based
CAKI-1 = experiment: Antitumor activity against human Caki1 cells; assay type: functional, cell-based
RXF 393 = experiment: Antitumor activity against human RXF393 cells; assay type: functional, cell-based
SN12C = experiment: Antitumor activity against human SN12C cells; assay type: functional, cell-based
TK-10 = experiment: Antitumor activity against human TK10 cells; assay type: functional, cell-based
UO-31 = experiment: Antitumor activity against human UO31 cells; assay type: functional, cell-based
PC-3 = experiment: Antitumor activity against human PC3 cells; assay type: functional, cell-based
DU-145 = experiment: Antitumor activity against human DU145 cells; assay type: functional, cell-based
MCF7 [2] = experiment: Antitumor activity against human MCF7 cells; assay type: functional, cell-based
MCF7 [3] = experiment: Antitumor activity against […] human MCF7 cells; assay type: functional, cell-based
MDA-MB-231 = experiment: Antitumor activity against human MDA-MB-231 cells; assay type: functional, cell-based
[4] = Antitumor activity against human Hs 578T cells; assay type: functional, cell-based
MDA-MB-435 = experiment: Antitumor activity against human MDA-MB-435 cells; assay type: functional, cell-based
MDA-N = experiment: Antitumor activity against human MDA-N cells; assay type: functional, cell-based
BT-549 = experiment: Antitumor activity against human BT549 cells; assay type: functional, cell-based
T47D = experiment: Antitumor activity against human T47D cells; assay type: functional, cell-based
CCRF-CEM [5] = experiment: Antitumor activity against human CCRF-CEM cells; assay type: functional, cell-based
HL-60(TB) = experiment: Antitumor activity against human HL-60(TB) cells; assay type: functional, cell-based
K562 = experiment: Antitumor activity against human K562 cells; assay type: functional, cell-based
MOLT-4 = experiment: Antitumor activity against human MOLT4 cells; assay type: functional, cell-based
RPMI-8226 = experiment: Antitumor activity against human RPMI8226 cells; assay type: functional, cell-based
SR = experiment: Antitumor activity against human SR cells; assay type: functional, cell-based
L1210 [6] = experiment: Cytotoxicity against mouse L1210 cells at 64 ug/disk by disk diffusion soft agar colony formation assay; assay type: functional
MC-38 [7] = experiment: Cytotoxicity against mouse C38 cells at 64 ug/disk by disk diffusion soft agar colony formation assay; assay type: functional
[8] = Cytotoxicity against human H116 cells at 64 ug/disk by disk diffusion soft agar colony formation assay; assay type: functional
[9] = Cytotoxicity against human H125 cells at 64 ug/disk by disk diffusion soft agar colony formation assay; assay type: functional
CCRF-CEM [10] = experiment: Cytotoxicity against human CEM cells at 64 ug/disk by disk diffusion soft agar colony formation assay; assay type: functional
L1210 [11] = experiment: Cytotoxicity against mouse L1210 cells at 84 ug/disk by disk diffusion soft agar colony formation assay; assay type: functional
MC-38 [12] = experiment: Cytotoxicity against mouse C38 cells at 84 ug/disk by disk diffusion soft agar colony formation assay; assay type: functional
[13] = Cytotoxicity against mouse CFU-GM cells at 84 ug/disk by disk diffusion soft agar colony formation assay; assay type: cell-based
[14] = Cytotoxicity against human H116 cells at 84 ug/disk by disk diffusion soft agar colony formation assay; assay type: functional
[15] = Cytotoxicity against human H125 cells at 84 ug/disk by disk diffusion soft agar colony formation assay; assay type: functional
CCRF-CEM [16] = experiment: Cytotoxicity against human CEM cells at 84 ug/disk by disk diffusion soft agar colony formation assay; assay type: functional

Question: For `CC1=C(CC/C(C)=C/CC/C(C)=C/CCC(CC(=O)O)C(=O)[O-])C(C)(C)CCC1.O=C1c2ccccc2-[n+]2ccc3c([nH]c4ccccc43)c21` (stereo not drawn) [FASCAPLYSIN A], which IC50 (A549) is on record?
Answer: 7.6 µM

Question: And the IC50 (EKVX)?
Answer: 5.2 µM

Question: What about the IC50 (HOP-62) of the same compound?
Answer: 5.1 µM

Question: And the IC50 (HOP-92)?
Answer: 1 µM

Question: What about the IC50 (NCI-H226) of the same compound?
Answer: 8.3 µM

Question: And the IC50 (NCI-H23)?
Answer: 5.1 µM

Question: And the IC50 (NCI-H322M)?
Answer: 4.3 µM

Question: What about the IC50 (NCI-H460) of the same compound?
Answer: 6.4 µM

Question: And the IC50 (NCI-H522)?
Answer: 6.3 µM

Question: And the IC50 (COLO 205)?
Answer: 0.83 µM

Question: And the IC50 (HCC 2998)?
Answer: 3.8 µM

Question: What about the IC50 (HCT-116) of the same compound?
Answer: 1.6 µM

Question: What about the IC50 (HCT-15) of the same compound?
Answer: 5.8 µM

Question: And the IC50 (HT-29)?
Answer: 1.4 µM

Question: What about the IC50 (KM12) of the same compound?
Answer: 7.3 µM

Question: What about the IC50 (SW-620) of the same compound?
Answer: 3.9 µM

Question: And the IC50 (SF-268)?
Answer: 5.7 µM

Question: What about the IC50 (SF-295) of the same compound?
Answer: 5.2 µM

Question: What about the IC50 (SF-539) of the same compound?
Answer: 2.2 µM

Question: And the IC50 (SNB-19)?
Answer: 5.4 µM

Question: What about the IC50 (SNB-75) of the same compound?
Answer: 5.2 µM

Question: And the IC50 (U-251)?
Answer: 4.1 µM

Question: What about the IC50 (LOX IMVI) of the same compound?
Answer: 6.3 µM

Question: What about the IC50 (Malme-3M) of the same compound?
Answer: 0.54 µM

Question: And the IC50 (M14)?
Answer: 4.2 µM

Question: What about the IC50 (SK-MEL-28) of the same compound?
Answer: 3.9 µM

Question: And the IC50 (SK-MEL-5)?
Answer: 0.53 µM

Question: What about the IC50 (UACC-257) of the same compound?
Answer: 3.8 µM

Question: And the IC50 (UACC-62)?
Answer: 3.2 µM

Question: What about the IC50 (IGROV-1) of the same compound?
Answer: 1.7 µM

Question: And the IC50 (OVCAR-3)?
Answer: 3.1 µM

Question: And the IC50 (OVCAR-4)?
Answer: 4.5 µM

Question: And the IC50 (OVCAR-5)?
Answer: 5.8 µM

Question: What about the IC50 (OVCAR-8) of the same compound?
Answer: 5.3 µM

Question: And the IC50 (SK-OV-3)?
Answer: 7.7 µM

Question: What about the IC50 [1] of the same compound?
Answer: 5.1 µM

Question: What about the IC50 (ACHN) of the same compound?
Answer: 5.5 µM

Question: What about the IC50 (CAKI-1) of the same compound?
Answer: 7.3 µM

Question: And the IC50 (RXF 393)?
Answer: 3.5 µM

Question: And the IC50 (SN12C)?
Answer: 3.2 µM

Question: And the IC50 (TK-10)?
Answer: > 10 µM

Question: What about the IC50 (UO-31) of the same compound?
Answer: 5.6 µM

Question: What about the IC50 (PC-3) of the same compound?
Answer: 5.4 µM

Question: And the IC50 (DU-145)?
Answer: 5.6 µM

Question: What about the IC50 (MCF7 [2]) of the same compound?
Answer: 5 µM

Question: What about the IC50 (MCF7 [3]) of the same compound?
Answer: > 10 µM

Question: What about the IC50 (MDA-MB-231) of the same compound?
Answer: 6.8 µM

Question: What about the IC50 [4] of the same compound?
Answer: > 10 µM

Question: And the IC50 (MDA-MB-435)?
Answer: 0.57 µM

Question: And the IC50 (MDA-N)?
Answer: 0.58 µM

Question: And the IC50 (BT-549)?
Answer: 5.1 µM

Question: And the IC50 (T47D)?
Answer: 6.6 µM

Question: And the IC50 (CCRF-CEM [5])?
Answer: > 10 µM

Question: What about the IC50 (HL-60(TB)) of the same compound?
Answer: > 10 µM

Question: What about the IC50 (K562) of the same compound?
Answer: > 10 µM

Question: What about the IC50 (MOLT-4) of the same compound?
Answer: > 10 µM

Question: What about the IC50 (RPMI-8226) of the same compound?
Answer: > 10 µM

Question: And the IC50 (SR)?
Answer: > 10 µM

Question: With `O=C(O)c1ccccc1-[n+]1ccc2c(c1)[nH]c1ccccc12.[Cl-]` [RETICULATATE] as the compound, how does the Activity (L1210 [6]) read?
Answer: 650 Zone units

Question: What about the Activity (MC-38 [7]) of the same compound?
Answer: 700 Zone units

Question: And the Activity [8]?
Answer: 650 Zone units

Question: What about the Activity [9] of the same compound?
Answer: 500 Zone units

Question: What about the Activity (CCRF-CEM [10]) of the same compound?
Answer: 350 Zone units

Question: For `Oc1ccc(Br)cc1-[n+]1ccc2c(c1)[nH]c1ccccc12.[Cl-]`, which Activity (L1210 [11]) is on record?
Answer: 450 Zone units

Question: What about the Activity (MC-38 [12]) of the same compound?
Answer: 400 Zone units

Question: And the Activity [13]?
Answer: 450 Zone units

Question: What about the Activity [14] of the same compound?
Answer: 500 Zone units

Question: What about the Activity [15] of the same compound?
Answer: 550 Zone units

Question: What about the Activity (CCRF-CEM [16]) of the same compound?
Answer: 750 Zone units

Question: What does the source list for `Oc1ccccc1-[n+]1ccc2c(c1)[nH]c1ccccc12.[Cl-]` [RETICULATOL]?
Answer: Activity (L1210 [6]): 200 Zone units; Activity (MC-38 [7]): 200 Zone units; Activity [8]: 100 Zone units; Activity [9]: 400 Zone units; Activity (CCRF-CEM [10]): >1000 Zone units

Question: With `O=C(O)c1ccc(Br)cc1-[n+]1ccc2c(c1)[nH]c1ccccc12.[Cl-]` as the compound, how does the Activity (L1210 [6]) read?
Answer: 100 Zone units

Question: And the Activity (MC-38 [7])?
Answer: 250 Zone units

Question: And the Activity [8]?
Answer: 0 Zone units

Question: And the Activity [9]?
Answer: 0 Zone units
